Square brackets hold non-standard residues; d marks the D form. Peptide text beside a SMILES is read from it.
Key:
[1] = Acute toxicity test in mice (intravenous); assay type: in vivo; conditions: for mortality: mice, i.v., one dose per day for 2 days
Method: Acute toxicity of peptides 1, 13 and 16 was examined by intravenously injecting mice (n=3), each with one dose per day for 2 days of 0.5 ml solution containing peptides 1, 13 or 16 at 3, 9, 15, 20 and 30 mg/kg of body weight.
A week after injecting the peptides, blood samples were taken from the survived mice. […] Thus, the peptides 13 and 16 of the invention are not toxic even when administered at concentrations considerably higher than those necessary for their anticancer activity.

[2] = system: AI CL1 human PC cells xenograft; test: Inhibition of tumor growth in human prostate cancer xenografts, CL1; assay type: in vivo, nude male mice
Method: (§1) (i) Inhibition of tumor growth in human prostate cancer xenografts. Subcutaneouse (s.c.) implantation of human PC cells in mice was done as previously described in Gavish et al. (Gavish et al. 2002). Briefly, 0.1 ml AI CL1 or 22RV1 human PC cells (5×10^6 cells) in Matrigel were inoculated s.c. into the dorsal side of five to six week-old nude male mice weighing 20-25 g (Harlen Co., Israel). Two weeks after cell implantation, when the tumors diameter reached ≧5 mm (denoted as day 1), the diastereomer 13 and its all L-amino acid analog peptide (at 1 mg/kg, 0.1 mM), or vehicle (PBS, pH=7.4) were injected intratumorally (dosing volume of 2.5 ml/kg) three times a week for a total of 9 doses. Tumor size was measured by a caliper and recorded twice a week during a period of 28 days. Mice were weighed and tumor weight (mg) was estimated by using the formula of length×width×depth×0.52 in mm^3, assuming the specific gravity to be 1. At the end of the treatment, the mice were killed, and the tumors were removed, photographed, and weighed. The animal experimentation was conducted according to the rules of the Institutional Animal Care and Use Committee.

[3] = system: 22RV1 human PC cells xenograft; test: Inhibition of tumor growth in human prostate cancer xenografts, 22RV1; assay type: in vivo, nude male mice; conditions: 22RV1 xenograft
Method: as §1
Serum PSA levels. Four weeks after the first treatment, blood was withdrawn from the 22RV1-inoculated mice in order to determine the level of prostate specific antigen (PSA). The blood samples were taken directly to heparin containing tubes, centrifuged, and the supernatants were stored at −20° C. The CanAg PSA EIA kit (CanAg Diagnostics) was used to determine the total PSA in the mice plasma (Gavish et al., 2002). Tumor weight and PSA levels, represented as the mean±SE, were calculated from the raw data and then subjected to Student's t test. A value of P<0.05 was considered as statistically significant.

[4] = Interaction with Matrigel matrix, analysed by RP-HPLC and mass spectroscopy; assay type: in vitro ADME; conditions: mixed with Matrigel matrix for one hour
[5] = system: 22RV1 prostate tumor lung metastases; test: Inhibition of prostate tumor-derived lung metastases formation
Source text: During the experiment, the mice were monitored continuously for clinical signs of toxicity.

[6] = system: RFP-MDA-MB-231 breast cancer (BC) cells xenograft; test: Inhibition of tumor growth in breast cancer xenografts; assay type: in vivo, female SCID/NCr mice
Method: RFP-MDA-MB-231 breast cancer (BC) cells were injected (5×10^6 cells in 0.1 ml PBS) into the left mammary fat pad of 8-week-old female SCID/NCr mice (NCI, USA) as previously described ([…] et al., 2004). […] Mice were weighed and tumor volume was measured by a caliper (expressed in weight units (mg) (Papo et al., 2003) twice a week for a period of 45 days. Monitoring of solid breast tumor and its derived metastases was done by in vivo fluorescence. Tumor fluorescence intensity was monitored in real time by using in vivo optical imaging system (IVIS) and was recorded once a week during the period of 38 days.

[7] = system: pepsin, trypsin, and elastase; test: Resistance to proteolytic digestion (reverse-phase HPLC); assay type: in vitro ADME; conditions: after 2 hr, 140 μM peptide, 25 μM protease, 37° C.
Method: In order to reach their target, the diastereomers have to withstand proteolytic digestion of proteases, which may occur after their administration and during the time until they reach the target site. The susceptibility of the peptides 13 and 14 to proteolytic digestion by pepsin (from porcine stomach mucosa, Sigma), trypsin (from bovine pancreas, Sigma), and elastase (from human leukocytes, Sigma) was assessed by reverse-phase HPLC. As a negative control, the all L-amino acid analog peptides were used. Equal amounts of the peptides were dissolved in PBS (35 mM phosphate buffer/0.15 M NaCl, pH 7.3) at a final concentration of 140 μM, to which 25 μM of protease were added. […] After the addition of the appropriate protease inhibitor to stop the reaction, aliquots were injected to C18 column and the amounts of the intact peptides 13 and 14 and their all L analogs were evaluated using their absorbance at 215 nm.

[8] = 5 mg/kg systemically, three times a week, 9 doses

With `CC(C)C[C@H](NC(=O)[C@H](CC(C)C)NC(=O)[C@@H](CCCCN)NC(=O)[C@H](CC(C)C)NC(=O)[C@H](CC(C)C)NC(=O)[C@H](Cc1c[nH]cn1)NC(=O)[C@@H](CCCCN)NC(=O)[C@@H](CC(C)C)NC(=O)[C@H](CC(C)C)NC(=O)[C@@H](CCCCN)NC(=O)[C@H](Cc1c[nH]cn1)NC(=O)[C@H](CC(C)C)NC(=O)[C@@H](CC(C)C)NC(=O)[C@H](CCCCN)NC(=O)[C@@H](N)CC(C)C)C(N)=O` [Peptide 13] (H-LK[dL]LH[dK]L[dL][dK]HLL[dK]LL-NH2) the mortality ([1]; 3 mg/kg) was “No mortality”, the mortality ([1]; 9 mg/kg) was “No mortality” and the mortality ([1]; 15 mg/kg) was “no mortality”. For the same molecule, the mortality ([1]; 20 mg/kg) was “no mortality”, the “blood differential and biochemistry tests” value ([1]; survived mice, a week after injection) was “in the range of normal values” and the tumor weight ([2]; CL1 xenograft, 1 mg/kg intratumorally, 9 doses) was “significant reduction”. For the same molecule, the “body weight of the animals compared with vehicle-treated control group” value ([2]; prostate cancer xenografts (CL1, 22RV1)) was “increase”, the tumor weight ([3]; 1 mg/kg intratumorally, 9 doses) was “significant reduction” and the PSA serum levels ([3]; four weeks after first treatment) was “marked decrease”. For the same molecule, the “activity preserved upon interaction with the Matrigel matrix” value [4] was about 50%, the “body weight compared with vehicle treated control group” value ([5]; mouse, in vivo) was “significant increase” and the lung metastases ([5]; systemic administration, vs untreated controls) was “entirely abolished”. The “clinical signs of toxicity (condition of animals)” value ([5]; throughout the assay period) was “good condition”, the “tumor fluorescence (IVIS)” value [6, 8] was “marked lowering” and the “tumor size (caliper measurements)” value [6, 8] was “major reduction”. For the same molecule, the “body weight of the animals compared with vehicle-treated control group” value ([6]; mouse, in vivo) was “increase”, the condition of animals ([6]; throughout the assay period) was “good condition” and the proteases digestion [7] was about 50%.
